Results: patent publication US12582621B2, “Compositions and methods for delivering pharmaceutical agents” (Arizona Board of Regents on Behalf of the University of …, priority 2020, dated 2026)

System: radiation-induced oral mucosistis
Test: Fractionated radiation-induced oral mucositis in mice, topical suramin
Type: in vivo, C57BL/6J mice
Settings: 8 Gy on 5 consecutive days, topical suramin 50 mg/ml solution by intraoral swab twice daily, assessed day 7
Procedure: The head and neck region of six-week-old male and female C57BL/6J mice (4-5 mice/group/sex) were exposed to collimated fractionated radiation (8 Gy on 5 consecutive days). Topically applied suramin (50 mg/ml solution) was applied on day 1 of radiation by intraoral swab and twice daily throughout the experimental period. On day 7, all mice were euthanized and tongues were assessed for development and extent of oral mucositis ulceration on the dorsal surface of the tongue using 1% toluidine blue. Epithelial erosion and ulceration were visible as a deep blue color and ulceration area was measured using NIH Image J software. Histopathological grading (0-4 scale) using an established scale was used to assess OM staging and epithelial thinning.

SMILES: Cc1ccc(C(=O)Nc2ccc(S(=O)(=O)O)c3cc(S(=O)(=O)O)cc(S(=O)(=O)O)c23)cc1NC(=O)c1cccc(NC(=O)Nc2cccc(C(=O)Nc3cc(C(=O)Nc4ccc(S(=O)(=O)O)c5cc(S(=O)(=O)O)cc(S(=O)(=O)O)c45)ccc3C)c2)c1 [suramin, Suramin]
- effect on radiation-induced oral mucositis: diminishes radiation-induced oral mucosistis
